We go through ten compounds from patent US20220298107A1, “SUBSTITUTED UREA DIHYDROOROTATE DEHYDROGENASE INHIBITORS” (Janssen Biotech, Inc., priority 2019, published 2022).

The target of one test is human DHODH (Homo sapiens, UniProt Q02127). Nature of the test: biochemical. On the procedure: To detect DHODH enzyme activities, dichloroindophenol (DCIP) is added as the final electron acceptor in the assay. DCIP can accept electrons from the reduced coenzyme Q generated in the assay, or from dihydroorotate (DHO) via flavin mononucleotide (FMN) by binding presumably to the ubiquinone pocket. […] The assay buffer contained […], pH 7.5, 150 mM NaCl, 0.5 mM EDTA, and 0.1% Triton X-100 in MilliQ water. Substrate consisting of 20 mM DHO, 5 mM CoQ6, and 1 mM DCIP in assay buffer, initiates the reaction. […] Absorbance measurements were obtained using the BMG Phera Star plate-reading spectrophotomer. Purified human DHODH was purchased from Proteros (cat. No. PR-0044). Chemicals were purchased from Sigma-Aldrich, Teknova, and Avanti Polar Lipids. Liquid handling was performed using Labcyte Echo and Formulatrix Tempest.

A further test concerns MOLM-13 cells. In words: MOLM-13 Cellular Assay. The format is cell-based. The note with it: Homo sapiens, MOLM-13, 72 h, read-out: MOLM-13 Cellular Assay EC50 (nM). On the procedure: MOLM-13 cells were obtained from DSMZ and were maintained in RPMI 1640+Glutamax+25 mM HEPES (Invitrogen, catalog number 72400) supplemented with 10% heat inactivated fetal bovine serum (FBS; Invitrogen, catalog number 16140). The day prior to assay set-up, cells were pelleted, resuspended in fresh media, counted, and cells were plated at 0.4×10^6 cell/mL in a T150 flask. On the day of the assay, cells were pelleted, resuspend in fresh media, counted and seeded at 5,000 cells/well in white opaque 96-well tissue culture treated microplates (Perkin Elmer, catalog number 6005680). Cells were exposed to different concentrations of test compounds at 37° C., 5% CO2 for 72 hours immediately after seeding. Cell viability was acquired on a Perkin Elmer Envision 2104 multilabel reader using the CellTiter-Glo assay (Promega) according to the manufacturer's instructions.

Chain of human DHODH (Q02127 whole entry): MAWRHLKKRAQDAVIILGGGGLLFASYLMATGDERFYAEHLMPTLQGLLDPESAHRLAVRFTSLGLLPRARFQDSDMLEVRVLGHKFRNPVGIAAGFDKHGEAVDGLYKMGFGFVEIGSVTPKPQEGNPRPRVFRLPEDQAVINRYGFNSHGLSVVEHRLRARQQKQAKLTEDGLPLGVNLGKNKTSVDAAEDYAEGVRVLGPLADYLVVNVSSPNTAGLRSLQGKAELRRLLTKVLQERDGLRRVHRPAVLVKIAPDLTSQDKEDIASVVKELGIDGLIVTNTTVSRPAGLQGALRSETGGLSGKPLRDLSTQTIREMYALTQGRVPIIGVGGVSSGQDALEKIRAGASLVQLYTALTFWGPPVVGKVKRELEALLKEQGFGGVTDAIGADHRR

For the compound `Cc1ccnc(Cl)c1NC(=O)c1cc(F)c(NC(=O)N2CCC[C@@H]2CO)cc1O[C@@H](C)C(F)(F)F` [Example 36, (R)-N-(4-((2-Chloro-4-methylpyridin-3-yl)carbamoyl)-2-fluoro-5-(((S)-1,1,1-trifluoropropan-2-yl)oxy)phenyl)-2-(hydroxymethyl)pyrrolidine-1-carboxamide], the values for the EC50 on human DHODH and in the test on MOLM-13 cells were 2.6 nM and 6.6 nM, respectively.
For `Cc1n[nH]c(Cl)c1NC(=O)c1cc(F)c(NC(=O)N2CCC[C@@H]2CO)cc1O[C@@H](C)C(F)(F)F` [Example 37, (R)-N-(4-((5-Chloro-3-methyl-1H-pyrazol-4-yl)carbamoyl)-2-fluoro-5-(((S)-1,1,1-trifluoropropan-2-yl)oxy)phenyl)-2-(hydroxymethyl)pyrrolidine-1-carboxamide], in that order: 0.7 nM and 11 nM.
As to `COc1nccc(C)c1NC(=O)c1cc(F)c(NC(=O)N2CCC[C@@H]2CO)cc1O[C@@H](C)C(F)(F)F` [Example 38, (R)-N-(2-Fluoro-4-((2-methoxy-4-methylpyridin-3-yl)carbamoyl)-5-(((S)-1,1,1-trifluoropropan-2-yl)oxy)phenyl)-2-(hydroxymethyl)pyrrolidine-1-carboxamide], the EC50 (as a rule, the concentration that produces a half-maximal response) on human DHODH is 0.17 nM; with MOLM-13 cells it was 16 nM.
For `COc1ncc(C)c(NC(=O)c2cc(F)c(NC(=O)N3CCC[C@@H]3CO)cc2O[C@@H](C)C(F)(F)F)c1Cl` [Example 39, (R)-N-(4-((3-Chloro-2-methoxy-5-methylpyridin-4-yl)carbamoyl)-2-fluoro-5-(((S)-1,1,1-trifluoropropan-2-yl)oxy)phenyl)-2-(hydroxymethyl)pyrrolidine-1-carboxamide], in that order: 2.6 nM and 3.5 nM.
Consider `COc1ncc(C)c(NC(=O)c2cc(F)c(NC(=O)N3CCC[C@@H]3CO)cc2O[C@@H](C)C(F)(F)F)c1C` [Example 40, (R)-N-(2-Fluoro-4-((2-methoxy-3,5-dimethylpyridin-4-yl)carbamoyl)-5-(((S)-1,1,1-trifluoropropan-2-yl)oxy)phenyl)-2-(hydroxymethyl)pyrrolidine-1-carboxamide], for which the EC50 at human DHODH was 3.6 nM; with MOLM-13 cells, 25 nM.
For `CCN(CC(F)F)C(=O)Nc1cc(O[C@@H](C)C(F)(F)F)c(C(=O)Nc2c(C)ccnc2Cl)cc1F` [Example 41, (S)-N-(2-Chloro-4-methylpyridin-3-yl)-4-(3-(2,2-difluoroethyl)-3-ethylureido)-5-fluoro-2-((1,1,1-trifluoropropan-2-yl)oxy)benzamide], in that order: 17 nM and 37 nM.
In the case of `CCN(CC(F)F)C(=O)Nc1cc(O[C@@H](C)C(F)(F)F)c(C(=O)Nc2c(C)n[nH]c2Cl)cc1F` [Example 42, (S)-N-(5-Chloro-3-methyl-1H-pyrazol-4-yl)-4-(3-(2,2-difluoroethyl)-3-ethylureido)-5-fluoro-2-((1,1,1-trifluoropropan-2-yl)oxy)benzamide], the EC50 at human DHODH turned out to be 3 nM; in the test on MOLM-13 cells it was 11 nM.
For `CCN(CC(F)F)C(=O)Nc1cc(O[C@@H](C)C(F)(F)F)c(C(=O)Nc2c(C)ccnc2OC)cc1F` [Example 43, (S)-4-(3-(2,2-difluoroethyl)-3-ethylureido)-5-fluoro-N-(2-methoxy-4-methylpyridin-3-yl)-2-((1,1,1-trifluoropropan-2-yl)oxy)benzamide], in that order: 24 nM and 30 nM.
Turning to `CCN(CC(F)F)C(=O)Nc1cc(O[C@@H](C)C(F)(F)F)c(C(=O)Nc2c(C)cnc(OC)c2Cl)cc1F` [Example 44, (S)-N-(3-Chloro-2-methoxy-5-methylpyridin-4-yl)-4-(3-(2,2-difluoroethyl)-3-ethylureido)-5-fluoro-2-((1,1,1-trifluoropropan-2-yl)oxy)benzamide], the concentration for a half-maximal effect (EC50) at human DHODH was 7 nM; in the test on MOLM-13 cells it was 9.6 nM.
For `CCN(CC(F)F)C(=O)Nc1cc(O[C@@H](C)C(F)(F)F)c(C(=O)Nc2c(C)cnc(OC)c2C)cc1F` [Example 45, (S)-4-(3-(2,2-Difluoroethyl)-3-ethylureido)-5-fluoro-N-(2-methoxy-3,5-dimethylpyridin-4-yl)-2-((1,1,1-trifluoropropan-2-yl)oxy)benzamide], in that order: 27 nM and 63 nM.
